Measurements taken from patent US10517867B2, “Posaconazole derivative, pharmaceutical composition and use thereof” (priority 2016, dated 2019).
Where two headings read alike, the source gives them in different places.

Key:
[1] = In vitro metabolic stability in human plasma; type: in vitro ADME; conditions: human, plasma, 37° C., 10 μM compound, read-out: Human plasma T1/2
Procedure: (§1) This example detects the metabolic stability of the compounds of the present disclosure in human (rat) plasma and intestinal S9 in vitro. In a human (rat) plasma reaction system, 990 μl of human (rat) plasma was taken and incubated at 37° C. for 5 minutes, and 10 μl of the compound mother liquor was used to initiate the reaction. In the human (rat) intestinal S9 stability experiment, in the order shown in Table 2 below, the samples were added and incubated in a 37° C. water bath to initiate the reaction, each sample performed in triplicates. Respectively, at 1 minute, 2 minutes, 5 minutes, 15 minutes, 30 minutes after the reaction began, 100 μL of each was taken and added to a centrifuge tube containing 400 μL of 0° C. precooled internal standard working solution. The reaction was terminated, vortexed and mixed for 1 minute, centrifuged at 10000×g for 10 minutes in a 4° C. precooled high-speed centrifuge, and the supernatant was detected with HPLC. The test results were used to calculate metabolic half-life using WinNonlin (version 6.2 Pharsight, Mountain View, Calif.) with a non-compartmental model.
(§2) Compound stock solution concentration: 1 mM
(§3) Reaction matrix: human (rat) plasma, intestinal S9 purchased from Research Institute for Liver Diseases (Shanghai) Co., Ltd.

[2] = In vitro metabolic stability in human intestine S9; type: in vitro ADME; conditions: human, 37° C., 10 μM compound, 1 mg/mL S9, NADPH regeneration system, read-out: Human intestine S9 T1/2
Procedure: as §1, §2, §3

[3] = In vitro metabolic stability in rat plasma; type: in vitro ADME; conditions: rat, plasma, 37° C., 10 μM compound, read-out: Rat plasma T1/2
Procedure: as §1, §2, §3

[4] = In vitro metabolic stability in rat intestine S9; type: in vitro ADME; conditions: rat, 37° C., 10 μM compound, 1 mg/mL S9, NADPH regeneration system, read-out: Rat intestine S9 T1/2
Procedure: as §1, §2, §3

[5] = Solid stability test (stability chamber, HPLC total impurity); type: physicochemical
[6] = test system: Candida albicans ATCC10231; assay: Systemic fungal infection in mice, intragastric administration; type: in vivo, ICR mice; conditions: Candida albicans, ATCC10231, po
Procedure: (§4) ICR mice, weighing 18-22 g, male, provided by Hubei Experimental Animal Center.
Prior to the experiment, a small amount of Candida albicans was picked from an SDA medium kept at 4° C. with an inoculation loop and inoculated into 1 ml YPD culture medium, cultured at 30° C. with 200 rpm shaking and activated for 16 hours, so that the fungus was in the late stage of exponential growth. Counted with a hemocytometer and the fungal solution concentration was adjusted to 1×10^3 to 5×10^3 CFU/ml with RPMI1640 medium. Monoclonal Candida albicans on SDA plate was picked up, inoculated into 1 ml YPD (Yeast Extract Peptone Dextrose Medium, the same below) culture medium, cultured at 35° C., 200 rpm for 16 hours until late exponential growth phase. Candida albicans was inoculated into fresh medium for culturing for 6 hours at 1%, centrifuged at 1000×g for 5 minutes, washed with physiological saline three times until the supernatant was colorless, counted with a hemocytometer, and the cell concentration was adjusted to 5×10^6 cells/ml. A tail vein injection of 0.1 ml/10 g caused a systemic fungal infection in mice. […] A total of 7 days of observations were performed. All dead mice were burned with ethanol.

[7] = Determination of solubility in deionized water (HPLC, external standard); conditions: 25 °C, water, thermodynamic from solid
[8] = test system: Candida albicans ATCC10231; assay: Systemic fungal infection in mice, intravenous administration; type: in vivo, ICR mice
Procedure: as §4
Prior to the experiment, a small amount of Candida albicans was picked from an SDA (sacharomyces agar, the same below) medium kept at 4° C. with an inoculation loop and inoculated into 1 ml YPD (Yeast Extract Peptone Dextrose Medium) culture medium, cultured at 30° C. with 200 rpm shaking and activated for 16 hours, so that the fungus was in the late stage of exponential growth. Counted with a hemocytometer and the fungal solution concentration was adjusted to 1×10^3-5×10^3 CFU/ml with RPMI1640 medium (Roswell Park Memorial Institute 1640, the same below). Monoclonal Candida albicans on SDA plate was picked up, inoculated into 1 ml YPD (Yeast Extract Peptone Dextrose Medium, the same below) culture medium, cultured at 35° C., 200 rpm for 16 hours until late exponential growth phase. Candida albicans was inoculated into fresh medium for culturing for 6 hours at 1%, centrifuged at 1000×g for 5 minutes, washed with physiological saline three times until the supernatant was colorless, counted with a hemocytometer, and the cell concentration was adjusted to 5×10^6 cells/ml. A tail vein injection of 0.1 ml/10 g caused a systemic fungal infection in mice. […] A total of 7 days of observations were performed. All dead mice were burned with ethanol.

[9] = 24 h, read-out: survival rate of mice, day 1, 20 mg/kg intragastric once daily for 5 days, day 1
[10] = 48 h, read-out: survival rate of mice, day 2, 20 mg/kg intragastric once daily for 5 days, day 2
[11] = 72 h, read-out: survival rate of mice, day 3, 20 mg/kg intragastric once daily for 5 days, day 3
[12] = 96 h, read-out: survival rate of mice, day 4, 20 mg/kg intragastric once daily for 5 days, day 4
[13] = 120 h, read-out: survival rate of mice, day 5, 20 mg/kg intragastric once daily for 5 days, day 5
[14] = 144 h, read-out: survival rate of mice, day 6, 20 mg/kg intragastric once daily for 5 days, day 6
[15] = 168 h, read-out: survival rate of mice, day 7, 20 mg/kg intragastric once daily for 5 days, day 7
[16] = 24 h, 20 mg/kg intragastric once daily for 5 days, day 1, read-out: survival rate of mice, day 1
[17] = 48 h, 20 mg/kg intragastric once daily for 5 days, day 2, read-out: survival rate of mice, day 2
[18] = 72 h, 20 mg/kg intragastric once daily for 5 days, day 3, read-out: survival rate of mice, day 3
[19] = 96 h, 20 mg/kg intragastric once daily for 5 days, day 4, read-out: survival rate of mice, day 4
[20] = 120 h, 20 mg/kg intragastric once daily for 5 days, day 5, read-out: survival rate of mice, day 5
[21] = 144 h, 20 mg/kg intragastric once daily for 5 days, day 6, read-out: survival rate of mice, day 6
[22] = 168 h, 20 mg/kg intragastric once daily for 5 days, day 7, read-out: survival rate of mice, day 7
[23] = 24 h, read-out: survival rate of mice, day 1
[24] = 48 h, read-out: survival rate of mice, day 2
[25] = 72 h, read-out: survival rate of mice, day 3
[26] = 96 h, read-out: survival rate of mice, day 4
[27] = 120 h, read-out: survival rate of mice, day 5
[28] = 144 h, read-out: survival rate of mice, day 6
[29] = 168 h, read-out: survival rate of mice, day 7

SMILES | half-life at 10 µM [1] | half-life at 10 µM ([2]; intestinal S9) | half-life at 10 µM [3] | half-life at 10 µM ([4]; intestinal S9, pH 7.4) | Total impurity increment in 30 days [5] | responders at 20 mg/kg [6, 9] | responders at 20 mg/kg [6, 10] | responders at 20 mg/kg [6, 11] | responders at 20 mg/kg [6, 12] | responders at 20 mg/kg [6, 13] | responders at 20 mg/kg [6, 14] | responders at 20 mg/kg [6, 15] | solubility at 30 min [7] | half-life at 10 µM [2] | half-life at 10 µM ([4]; pH 7.4) | other results
CC[C@@H]([C@H](C)O)n1ncn(-c2ccc(N3CCN(c4ccc(OC[C@@H]5CO[C@@](Cn6c[n+](C(C)OC(=O)N(C)c7ncccc7COC(=O)[C@@H](N)CCC(N)=O)cn6)(c6ccc(F)cc6F)C5)cc4)CC3)cc2)c1=O (stereo partly shown) [ST0022] | 1.39 ± 0.52 min | 17.7 ± 4.52 min | 1.12 ± 0.45 min | 19 ± 5.36 min | 0.48% | 100% | 100% | 100% | 90% | 80% | 80% | 70% | > 50 mg/mL |  |  | 
CC[C@@H]([C@H](C)O)n1ncn(-c2ccc(N3CCN(c4ccc(OC[C@@H]5CO[C@@](Cn6c[n+](C(C)OC(=O)N(C)c7ncccc7COC(=O)[C@@H](N)Cc7ccc(O)cc7)cn6)(c6ccc(F)cc6F)C5)cc4)CC3)cc2)c1=O (stereo partly shown) [ST0027] | 20.4 ± 3.65 min | 45.9 ± 8.12 min | 15.9 ± 7.85 min | 39.5 ± 6.69 min | 0.75% |  |  |  |  |  |  |  | > 50 mg/mL |  |  | 
CC[C@@H]([C@H](C)O)n1ncn(-c2ccc(N3CCN(c4ccc(OC[C@@H]5CO[C@@](Cn6c[n+](C(C)OC(=O)N(C)c7ncccc7COC(=O)CN(C)C)cn6)(c6ccc(F)cc6F)C5)cc4)CC3)cc2)c1=O (stereo partly shown) [ST0045] | 15.2 ± 3.99 min | 33.2 ± 4.23 min | 11.9 ± 2.96 min | 26 ± 5.69 min | 1.68% |  |  |  |  |  |  |  | > 50 mg/mL |  |  | 
CC[C@@H]([C@H](C)OC(=O)OC(C)OC(=O)CNC)n1ncn(-c2ccc(N3CCN(c4ccc(OC[C@@H]5CO[C@@](Cn6cncn6)(c6ccc(F)cc6F)C5)cc4)CC3)cc2)c1=O.Cl (stereo partly shown) [ST0053] | 19.9 ± 3.01 min | 50.2 ± 5.15 min | 21.2 ± 4.52 min | 48.2 ± 6.85 min |  |  |  |  |  |  |  |  |  |  |  | Total impurity increment in 30 days ([5]; solid, packaged, 25° C.±2° C., relative humidity 60%±2%): 0.85%; responders at 20 mg/kg [6, 16]: 90%; responders at 20 mg/kg [6, 17]: 80%; responders at 20 mg/kg [6, 18]: 70%; responders at 20 mg/kg [6, 19]: 60%; responders at 20 mg/kg [6, 20]: 60%; responders at 20 mg/kg [6, 21]: 60%; responders at 20 mg/kg [6, 22]: 60%
CC[C@@H]([C@H](C)OC(=O)OCOC(=O)CCCCCOP(=O)([O-])[O-])n1ncn(-c2ccc(N3CCN(c4ccc(OC[C@@H]5CO[C@@](Cn6cncn6)(c6ccc(F)cc6F)C5)cc4)CC3)cc2)c1=O.[Na+].[Na+] [ST0073] | 0.92 ± 0.11 min |  | 0.75 ± 0.23 min |  |  | 100% | 90% | 80% | 80% | 80% | 70% | 70% | > 50 mg/mL | 16.2 ± 6.08 min | 16 ± 8.96 min | responders at 20 mg/kg [8, 23]: 100%; responders at 20 mg/kg [8, 24]: 100%; responders at 20 mg/kg [8, 25]: 100%; responders at 20 mg/kg [8, 26]: 100%; responders at 20 mg/kg [8, 27]: 90%; responders at 20 mg/kg [8, 28]: 90%; responders at 20 mg/kg [8, 29]: 90%
CC[C@@H](C(C)OC(=O)OCOC(=O)CCCCCCOP(=O)([O-])[O-])n1ncn(-c2ccc(N3CCN(c4ccc(OC[C@@H]5CO[C@@](Cn6cncn6)(c6ccc(F)cc6F)C5)cc4)CC3)cc2)c1=O.[Na+].[Na+] (stereo partly shown) [ST0074] | 0.86 ± 0.07 min |  | 1.26 ± 0.54 min |  |  | 100% | 100% | 90% | 80% | 80% | 80% | 70% | > 50 mg/mL | 20 ± 4.66 min | 18.2 ± 5.66 min | responders at 20 mg/kg [8, 23]: 100%; responders at 20 mg/kg [8, 24]: 100%; responders at 20 mg/kg [8, 25]: 90%; responders at 20 mg/kg [8, 26]: 90%; responders at 20 mg/kg [8, 27]: 90%; responders at 20 mg/kg [8, 28]: 90%; responders at 20 mg/kg [8, 29]: 90%
CC[C@@H](C(C)OC(=O)OC(C)OC(=O)CCCOS(=O)(=O)[O-])n1ncn(-c2ccc(N3CCN(c4ccc(OC[C@@H]5CO[C@@](Cn6cncn6)(c6ccc(F)cc6F)C5)cc4)CC3)cc2)c1=O.[Na+] (stereo partly shown) [ST0077] | 1.97 ± 1.29 min |  | 1.55 ± 0.56 min |  |  |  |  |  |  |  |  |  | > 50 mg/mL | 21.3 ± 5.09 min | 19.3 ± 5.65 min | responders at 20 mg/kg ([8]; 24 h, 20 mg/kg tail vein once daily for 5 days, day 1, read-out: survival rate of mice, day 1): 100%; responders at 20 mg/kg ([8]; 48 h, 20 mg/kg tail vein once daily for 5 days, day 2, read-out: survival rate of mice, day 2): 100%; responders at 20 mg/kg ([8]; 72 h, 20 mg/kg tail vein once daily for 5 days, day 3, read-out: survival rate of mice, day 3): 100%; responders at 20 mg/kg ([8]; 96 h, 20 mg/kg tail vein once daily for 5 days, day 4, read-out: survival rate of mice, day 4): 100%; responders at 20 mg/kg ([8]; 120 h, 20 mg/kg tail vein once daily for 5 days, day 5, read-out: survival rate of mice, day 5): 90%; responders at 20 mg/kg ([8]; 144 h, 20 mg/kg tail vein once daily for 5 days, day 6, read-out: survival rate of mice, day 6): 90%; responders at 20 mg/kg ([8]; 168 h, 20 mg/kg tail vein once daily for 5 days, day 7, read-out: survival rate of mice, day 7): 90%; responders at 20 mg/kg [6, 16]: 100%; responders at 20 mg/kg [6, 17]: 90%; responders at 20 mg/kg [6, 18]: 80%; responders at 20 mg/kg [6, 19]: 80%; responders at 20 mg/kg [6, 20]: 80%; responders at 20 mg/kg [6, 21]: 70%; responders at 20 mg/kg [6, 22]: 70%
